In patent US6855507B2, “Method of screening for pharmaceuticals by detecting cross talk between intracellular signals and intranuclear receptors” (Chugai Seiyaku Kabushiki Kaisha, priority 1998, dated 2005):

Tested on: VDR and Smad3
Assay: GST-pull down analysis of VDR and Smad3 interaction (cell-free)
Format: binding
Conditions: FIG. 5
Method: GST fused Smad3 or VDR (full length peptide 1-424, partial peptides: amino acid sequence 115-424, 115-357, 115-300 and others, see FIG. 4) fused proteins (GST-Smad3 or GST-VDR) were expressed by using E.coli, and were captured on beads with glutatione-Sepharose bead (Pharmacia) to accomplish affinity purification. On the other hand, ^35S-methionine-labeled Smad3 and VDR were prepared in cell-free system by using reticulocyte lysate translation system (Promega). GST-Smad3 or GST-VDR fixed on beads described above was incubated with ^35S-methionine labeled VRD or Smad3. By using polyacrylamide gel electrophoresis, ^35S-methionine labeled VDR or Smad3 were analyzed.

SMILES: C=C1/C(=C\C=C2/CCC[C@]3(C)[C@@H]([C@H](C)CCCC(C)(C)O)CC[C@@H]23)C[C@@H](O)C[C@@H]1O [1,25(OH)2VD3]
- binding of full length VDR to Smad3 in the presence of ligand (1 nM): slightly bound
- ligand requirement of binding of VDR partial peptides 115-357 and 115-300 to Smad3: did not require
